From paper PMC11111691, “Cystine-knot peptide inhibitors of HTRA1 bind to a cryptic pocket within the active site region” (Nature Communications, 2024)
Positions of bridges follow the written chain, without caps; N, C: chain ends. Residues, ends and D or L forms follow the SMILES beside them.

Experiments:
C32 melanoma cells = assay: Cell toxicity assay (CellTiter-Glo), C32; type: cell-based, human; conditions: 0.6-50 µM CKP, 24 h and 72 h, at least three independent experiments
Experimental: reduction at the highest CKP concentration of 50 µM after 72 h (see results below). The absence of cell toxicity is likely due to the inability of the CKPs to penetrate cell membranes, which was experimentally determined in response to another reviewer. Due to space limitations we have not […]
Protocol of cell toxicity assay (Figure above):
HeLa cells or C32 melanoma cells were passaged in DMEM media supplemented with 10% FBS, 1% pen-strep and 1x Glutamax using standard culture conditions (5% CO2, 90% humidity at 37°C). At approximately 95% confluence cells were trypsinized, seeded onto 96-well plates (Corning) at 10,000 cells/well and grown for 24 h. Cells were then incubated with the CKPs 3B3, 1D3-ENI and 1G10-ENI (0, 0.6, 1.9, 5.6, 16.7 and 50 µM) at 37°C for 24 h or for 72h. As a positive control we used staurosporine (STS; 1µM). Cell viability was measured using the CellTiter-Glo luminescent cell viability assay (Promega) on an Envision Multilabel plate reader. Average of at least three independent experiments ± S.D. were plotted in Prism 10. Two-way ANOVA was performed on each dataset and compared to no drug samples and no significant viability reductions were observed, except for some treatments at the […]

HTRA4^PD/PDZ, HTRA4^FL [1] = biological target: T1, HTRA4^PD/PDZ, HTRA4^FL (Homo sapiens, UniProt P83105); assay: Fluorescence-quenched casein-BODIPY assay, HTRA4; type: biochemical; conditions: 30 nM HTRA4^FL, 2 µM CKP (0.5 mM 7mer-ABP)
T1 construct: purchased Abcam (FL form); the PD/PDZ form was made in house in E. coli ab134444
T1 sequence (P83105 32-476): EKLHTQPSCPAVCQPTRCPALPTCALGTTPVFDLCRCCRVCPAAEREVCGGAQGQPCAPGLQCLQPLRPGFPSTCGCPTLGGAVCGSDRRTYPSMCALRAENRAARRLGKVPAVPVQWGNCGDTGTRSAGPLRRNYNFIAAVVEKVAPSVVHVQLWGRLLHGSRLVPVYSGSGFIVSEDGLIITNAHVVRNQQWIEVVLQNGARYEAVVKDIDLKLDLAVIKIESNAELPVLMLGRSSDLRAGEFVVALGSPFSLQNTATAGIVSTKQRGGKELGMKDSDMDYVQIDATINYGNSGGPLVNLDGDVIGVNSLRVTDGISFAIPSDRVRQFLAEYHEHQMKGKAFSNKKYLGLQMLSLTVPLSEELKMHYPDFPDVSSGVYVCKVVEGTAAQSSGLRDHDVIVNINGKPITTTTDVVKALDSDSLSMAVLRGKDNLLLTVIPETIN
Experimental: (§1) The fluorescence-quenched casein-BODIPY® assay (EnzCheck®, Thermo Fisher Scientific) was carried out in TNC buffer (50 mM Tris pH 8.0, 200 mM NaCl, 0.25% CHAPS) at 37 °C in 96-well black optical bottom plates (Nalge Nunc Int., Rochester, NY). Enzymes were incubated with CKPs or DMSO control for 15 min prior to addition of casein substrate. The reactant concentrations were: 30 nM HTRA1^FL, 30 nM HTRA1^PD/PDZ, 30 nM HTRA1^PD, 30 nM HTRA2^PD/PDZ, 30 nM HTRA3^FL, 100 nM HTRA3^PD/PDZ, 30 nM HTRA4^FL, 300 nM HTRA4^PD/PDZ, 2 µM CKP, 5 µg/ml casein substrate and 0.25% DMSO. For selectivity assays, 0.5 mM 7mer-ABP was used as positive control. The kinetics of substrate cleavage were measured at 37 °C on a SpectraMax M5 microplate reader (Molecular Devices) with excitation of 485 nm and emission of 530 nm for 30 min (HTRA1 and HTRA2) or 5 h (HTRA3 and HTRA4). The determined initial rates of cleavage were expressed as percent of control (DMSO control) after subtracting the baseline rates (without enzyme).

HTRA4^PD/PDZ, HTRA4^FL [2] = biological target: T2, HTRA4^PD/PDZ, HTRA4^FL (Homo sapiens, UniProt P83105); assay: Fluorescence-quenched casein-BODIPY assay, HTRA4; type: biochemical; conditions: 300 nM HTRA4^PD/PDZ, 2 µM CKP (0.5 mM 7mer-ABP)
T2 construct: purchased Abcam (FL form); the PD/PDZ form was made in house in E. coli ab134444
T2 sequence (P83105 153-476): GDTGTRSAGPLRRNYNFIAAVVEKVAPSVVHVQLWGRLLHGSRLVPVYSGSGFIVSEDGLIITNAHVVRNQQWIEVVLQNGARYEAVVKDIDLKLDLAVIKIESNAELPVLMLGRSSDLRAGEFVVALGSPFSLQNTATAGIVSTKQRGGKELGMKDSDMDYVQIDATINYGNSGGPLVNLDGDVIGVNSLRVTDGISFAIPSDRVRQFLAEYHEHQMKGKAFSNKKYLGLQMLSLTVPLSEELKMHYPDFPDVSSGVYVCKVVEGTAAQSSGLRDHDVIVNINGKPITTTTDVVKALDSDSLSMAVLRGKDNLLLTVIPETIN
Experimental: as §1

Compound | Cell viability, C32 melanoma cells (C32 melanoma cells) | Inhibition of HTRA4^FL, casein-BODIPY cleavage (% of control) (HTRA4^PD/PDZ, HTRA4^FL [1]) | Inhibition of HTRA4^PD/PDZ, casein-BODIPY cleavage (% of control) (HTRA4^PD/PDZ, HTRA4^FL [2])
CC[C@H](C)[C@H](NC(=O)[C@@H]1CCCN1C(=O)[C@H](CC(=O)O)NC(=O)[C@H](C)NC(=O)[C@@H](N)Cc1c[nH]cn1)C(=O)N[C@H]1CSSC[C@@H]2NC(=O)[C@H](Cc3ccccc3)NC(=O)[C@H](Cc3c[nH]c4ccccc34)NC(=O)[C@H](C)NC(=O)CNC(=O)[C@H](CO)NC(=O)[C@@H]3CSSC[C@@H](C(=O)NCC(=O)N4CCC[C@H]4C(=O)N[C@@H](Cc4ccc(O)cc4)C(=O)N[C@H](C(=O)NCC(N)=O)C(C)C)NC(=O)[C@H](CO)NC(=O)[C@H](Cc4c[nH]c5ccccc45)NC(=O)[C@H]([C@@H](C)O)NC(=O)[C@H](C)NC(=O)[C@H](Cc4ccc(O)cc4)NC(=O)[C@H](Cc4ccc(O)cc4)NC(=O)[C@H](CSSC[C@H](NC(=O)[C@@H]4CCCN4C(=O)[C@H](CCCCN)NC(=O)[C@H](CC(N)=O)NC1=O)C(=O)N[C@@H](CCCCN)C(=O)N[C@@H]([C@@H](C)O)C(=O)N[C@@H](Cc1c[nH]cn1)C(=O)N[C@@H](CC(=O)O)C(=O)N[C@@H](CC(=O)O)C(=O)N3)NC(=O)[C@H](C)NC(=O)[C@H](CCC(N)=O)NC2=O [3B3] (H-HADPICNKPCKTHDDCSGAWFCQACYYATWSCGPYVG-NH2; disulfide 6-22, 10-25, 16-32) | did not appreciably affect cell viability |  | 
DPMFKLV-phosphonate [7mer-ABP] |  | significantly inhibited | significantly inhibited
